Experimental findings from article PMC7239035 (Chemistry, an Asian journal, 2019) are described below.

The structures appear in SMILES notation.

The target of the assay is β2AR (human β2 adrenergic receptor) (Homo sapiens, UniProt P07550). Put plainly: radioligand binding. To be noted: labelled compound; antagonist; detergent micelles (PPM or DDM, CMC+0.2 wt%); room temperature.
β2AR (human β2 adrenergic receptor), sequence (P07550 whole entry): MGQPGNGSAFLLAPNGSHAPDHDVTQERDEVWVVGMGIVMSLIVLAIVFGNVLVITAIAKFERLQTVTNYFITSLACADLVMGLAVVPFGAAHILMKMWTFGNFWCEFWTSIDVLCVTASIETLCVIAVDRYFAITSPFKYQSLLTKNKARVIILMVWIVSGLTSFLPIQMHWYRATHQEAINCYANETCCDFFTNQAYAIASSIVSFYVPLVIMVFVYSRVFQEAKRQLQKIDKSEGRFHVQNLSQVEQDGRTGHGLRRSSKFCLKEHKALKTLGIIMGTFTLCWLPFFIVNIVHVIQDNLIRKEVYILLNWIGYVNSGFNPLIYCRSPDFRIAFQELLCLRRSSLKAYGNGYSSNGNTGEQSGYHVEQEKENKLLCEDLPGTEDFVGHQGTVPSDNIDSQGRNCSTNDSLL

Consider `CCCc1ccccc1OCC(O)CNC(C)C` (stereo not shown) [[3H]-dihydroalprenolol], for which the radioligand binding result is “receptor ability to bind the radio-labelled antagonist ([^3H]-dihydroalprenolol (DHA))”.
